Reference: patent publication US5663417A, “Carbocyclic sulfonamides” (Ono Pharmaceutical Co., Ltd., priority 1993, dated 1997)
pIC50: −log10 of the molar value.

Biological target: prostaglandin E2 receptor
Assay: inhibition of [^3 H]-PGE2 receptor binding in rat uterus membrane fraction
Conditions: Table I; 5 nM [^3 H]-PGE2, rat uterus crude membrane fraction, pH 6.0, 1 hour at room temperature; read-out: IC50, inhibitory effects of PGE2 receptor binding in rat
Protocol: (i) The measurement of the inhibition of [^3 H]-PGE2 receptor binding
The standard assay mixture contained 5 nM [^3 H]-PGE2 (50 μl), test compounds (50 μl) and crude membrane fraction obtained from rat uterus (1.2 mg protein/ml, 100 μl) in a final volume of 200 μl (10 mM potassium phosphate pH 6.0, 0.1M NaCl (buffer A)). After incubation for 1 hour at room temperature, the reaction was stopped by the addition of 3 ml of ice-cold buffer A, after which the mixture was rapidly filtered through a Whatman GF/B glass filter. The radioactivity associated with the filter was measured in ACS II (Amarsham) by liquid scintillation counting. Percent inhibition of specific [^3 H]-PGE2 binding or IC50 value, the concentration required to compete with ^3 H-PGE2 receptor binding by 50% were calculated.

Compound | pIC50
O=C(O)CCC/C=C\C1CC2CCC1C(NS(=O)(=O)c1ccc(Br)cc1)C2 (stereo not drawn) [U.S. Pat. No. 5168101 1 (a)] | 6.11
Cc1ccc(S(=O)(=O)NCC2C3C=CC(C3)C2C=CCCCC(=O)O)cc1 (stereo not drawn) [U.S. Pat. No. 5168101 1 (aa)] | 5.70
O=C(O)CCC/C=C\C1CC2CC(NS(=O)(=O)c3ccc(Br)cc3)C1C2 (stereo not drawn) [U.S. Pat. No. 5168101 1 (b)] | 5.46
O=C(O)CCCC=CC1C2C=CC(C2)C1CNS(=O)(=O)c1ccc(Br)cc1 (stereo not drawn) [U.S. Pat. No. 5168101 1 (bb)] | 6.09
O=C(O)CCC/C=C\C1CC2CC(NS(=O)(=O)c3ccc(Br)cc3)C1C2 (stereo not drawn) [U.S. Pat. No. 5168101 1 (c)] | 6.30
O=C(O)CCCC=CC1C2CCC(C2)C1CNS(=O)(=O)c1ccc(Br)cc1 (stereo not drawn) [U.S. Pat. No. 5168101 1 (cc)] | 6.41
O=C(O)CCC/C=C\[C@@H]1CC[C@H](NS(=O)(=O)c2ccc(Br)cc2)C1 [U.S. Pat. No. 5168101 1 (i)] | 5.62
Cc1ccc(S(=O)(=O)NCC2C3CCC(C3)C2/C=C\CCCC(=O)O)cc1 (stereo not drawn) [U.S. Pat. No. 5168101 1 (p)] | 5.19
O=C(O)CCC/C=C\C1CCCCC1CNS(=O)(=O)c1ccc(Br)cc1 (stereo not drawn) [U.S. Pat. No. 5168101 1 (t)] | 5.92
Cc1ccc(S(=O)(=O)NCC2C3CCC(C3)C2C=CCCCC(=O)O)cc1 (stereo not drawn) [U.S. Pat. No. 5168101 1 (x)] | 5.80
O=C(O)CCC/C=C\[C@@H]1[C@H]2CC[C@H](C2)[C@H]1CNS(=O)(=O)c1ccc(Br)cc1 [U.S. Pat. No. 5168101 1 (y), 6-[(1S, 2R, 3R, 4R)-3-(4-bromophenylsulfonylaminomethyl)bicyclo[2.2.1]heptan-2-yl]-5Z-hexenoic acid] | 6.21

Same assay, conditions: Table II; 5 nM [^3 H]-PGE2, rat uterus crude membrane fraction, pH 6.0, 1 hour at room temperature; read-out: IC50, inhibitory effects of PGE2 receptor binding in rat

Compound | pIC50
CC1(C)[C@H]2C[C@H](NS(=O)(=O)/C=C/c3ccccc3)[C@@H](C/C=C\CCCC(=O)O)[C@@H]1C2 [6 (12), 7-[(1S, 2S, 3S, 5R)-3-(2-phenylvinylsulfonylamino)-6,6-dimethylbicyclo[3.1.1]heptan-2-yl]-5Z-heptenoic acid] | > 8.00
CC1(C)[C@H]2C[C@H](NS(=O)(=O)C=C(c3ccccc3)c3ccccc3)[C@@H](C/C=C\CCCC(=O)O)[C@@H]1C2 [Example 9, 7-[(1S,2S,3S,5R)-3-(2,2-diphenylvinylsulfonylamino)-6,6-dimethylbicyclo[3.1.1]heptan-2-yl]-5Z-heptenoic acid] | 6.59

Test system: contraction of rat uterus induced by PGE2
Assay: inhibitory effects of compounds on contraction of rat uterus induced by PGE2
Design: species or system rat (Sprague Dawley)
Conditions: contraction induced by 0.3 μM PGE2; isolated pseudo pregnant rat uterus strips, 28° C.; compound concentration not given
Protocol: (ii) The inhibitory effects of compounds on contraction of rat uterus induced by PGE2
Pseudo pregnant rat uterus (Sprague Dawley, 200-300 g, induced by oestradiol […] s.c. 18-24 hours before experiment) was isolated and longitudinal strips of 1-1.5 cm were set up in Locke-Ringer solution containing low Ca^2+, aerated with mixed gas (oxygen 95%+carbon dioxide 5%) at 28° C.

Compound | inhibition of the contraction of rat uterus induced by PGE2
CC1(C)[C@H]2C[C@H](NS(=O)(=O)/C=C/c3ccccc3)[C@@H](C/C=C\CCCC(=O)O)[C@@H]1C2 [6 (12), 7-[(1S, 2S, 3S, 5R)-3-(2-phenylvinylsulfonylamino)-6,6-dimethylbicyclo[3.1.1]heptan-2-yl]-5Z-heptenoic acid] | completely inhibited

Test system: not listed separately
Assay: acute toxicity (LD50) in mouse by oral administration
Conditions: in vivo
Protocol: For example, the acute toxicity (LD50) in mouse of 6-[(1S, 2R, 3R, 4R)-3-(4-bromophenylsulfonylaminomethyl)bicyclo[2.2.1]heptan-2-yl]-5Z-hexenoic acid (it is described as example 1(y) in specification of the U.S. Pat. No. 5,168,101.) was more than 300 mg/kg by oral administration.

Compound | LD50 [mg/kg]
O=C(O)CCC/C=C\[C@@H]1[C@H]2CC[C@H](C2)[C@H]1CNS(=O)(=O)c1ccc(Br)cc1 [U.S. Pat. No. 5168101 1 (y), 6-[(1S, 2R, 3R, 4R)-3-(4-bromophenylsulfonylaminomethyl)bicyclo[2.2.1]heptan-2-yl]-5Z-hexenoic acid] | > 300
